{"source": "patent US20080031935A1", "about": "“Cholinesterase Inhibitors In Liposomes And Their Production And Use” (priority 2004, published 2008)", "test": "Solubility of galantamine base in ethanol", "type": "physicochemical", "data": [{"smiles": "COc1ccc2c3c1O[C@H]1C[C@@H](O)C=C[C@@]31CCN(C)C2", "note": "[galantamine base, galantamine]", "values": [{"measurement": "solubility in ethanol", "value": "soluble"}]}]}
